# Molecular target: SARS-CoV-2 PL^pro (Severe acute respiratory syndrome coronavirus 2, UniProt P0DTD1)
# Assay: PL^pro enzymatic inhibition assay (FRET-based, Z-RLRGG-AMC substrate)
# Format: biochemical
# Conditions: not given
Compound,Fold higher PL^pro affinity than compound 25b [fold],Fold improvement of PL^pro interaction in styryl ketone series,Fold improvement of PL^pro affinity over compound 12 [fold]
Cc1nc(N(CCC(=O)O)c2cccc3ccccc23)sc1C(=O)/C=C/c1ccc(Cl)cc1 [Compound 21b],2,4,–
Cc1nc(N(CCC(=O)O)c2cccc3ccccc23)sc1C(=O)/C=C/c1ccc(F)cc1 [Compound 21c],–,two times,–
Cc1ccc(N(CCC(=O)O)c2nc(CNc3ccccc3)cs2)cc1 [Compound 26],–,–,2

# Same assay, conditions: Table 1 thiazole series; enzymatic inhibition assay, 25 °C, pH 7.5; uncertainty approx. 1.8-fold of Kd
row,Compound,Kd [µM]
1,"O=C(O)CCNc1cccc2ccccc12 [Compound 1, 3-(naphtylamino]propanoic acid]",68
2,NC(=S)N(CCC(=O)O)c1cccc2ccccc12 [Compound 2],29
3,"O=C(O)CCN(c1nccs1)c1cccc2ccccc12 [Compound 3, 3-[naphthalene-1-yl(1,3-thiazol-2-yl)amino]propanoic acid]",14
4,Cc1csc(N(CCC(=O)O)c2cccc3ccccc23)n1 [Compound 4],110
5,O=C(O)CCN(C1=NC(=O)CS1)c1cccc2ccccc12 [Compound 5],> 200
6,O=C(O)CCN(c1nc(-c2ccc(Br)cc2)cs1)c1cccc2ccccc12 [Compound 6a],≥ 50
7,O=C(O)CCN(c1nc(-c2ccc(Cl)cc2)cs1)c1cccc2ccccc12 [Compound 6b],≥ 50
8,O=C(O)CCN(c1nc(-c2ccc(F)cc2)cs1)c1cccc2ccccc12 [Compound 6c],≥ 50
9,O=C(O)CCN(c1nc(-c2ccc([N+](=O)[O-])cc2)cs1)c1cccc2ccccc12 [Compound 6d],25
10,N#Cc1ccc(-c2csc(N(CCC(=O)O)c3cccc4ccccc34)n2)cc1 [Compound 6e],20
11,O=C(O)CCN(c1nc(-c2ccc(Cl)c(Cl)c2)cs1)c1cccc2ccccc12 [Compound 7],≥ 50
12,O=C(O)CCN(c1nc(-c2ccc3ccccc3c2)cs1)c1cccc2ccccc12 [Compound 8],35
13,O=C(O)CCN(c1nc(CCl)cs1)c1cccc2ccccc12 [Compound 9],≥ 50
14,O=C(O)CCN(c1nc(CO)cs1)c1cccc2ccccc12 [Compound 10],35
15,CCOC(=O)Cc1csc(N(CCC(=O)O)c2cccc3ccccc23)n1 [Compound 11],> 200
16,O=C(O)CCN(c1nc(CNc2ccccc2)cs1)c1cccc2ccccc12 [Compound 12],29
17,O=C(O)CCN(C1=NC(=O)C(=Cc2ccc(Br)cc2)S1)c1cccc2ccccc12 [Compound 13a],24
18,O=C(O)CCN(C1=NC(=O)C(=Cc2ccc(Cl)cc2)S1)c1cccc2ccccc12 [Compound 13b],≥ 50
19,O=C(O)CCN(C1=NC(=O)/C(=C/c2ccc(F)cc2)S1)c1cccc2ccccc12 [Compound 13c],8.6
20,O=C(O)CCN(C1=NC(=O)C(=Cc2ccc(O)cc2O)S1)c1cccc2ccccc12 [Compound 14],9.2
21,O=C(O)CCN(C1=NC(=O)C(=Cc2ccccc2O)S1)c1cccc2ccccc12 [Compound 15],≥ 50
22,O=C(O)CCN(C1=NC(=O)C(=Cc2cccs2)S1)c1cccc2ccccc12 [Compound 16],≥ 50
23,COC(=O)C=C1SC(N(CCC(=O)O)c2cccc3ccccc23)=NC1=O [Compound 17],> 200
24,Cc1nc(N(CCC(=O)O)c2cccc3ccccc23)sc1C(=O)O [Compound 18],≥ 50
25,Cc1nc(N(CCC(=O)O)c2cccc3ccccc23)sc1C(=O)/C=C/c1ccc(Cl)cc1 [Compound 21b],29
26,Cc1nc(N(CCC(=O)O)c2cccc3ccccc23)sc1C(=O)/C=C/c1ccc(F)cc1 [Compound 21c],52
27,Cc1ccc(N(CCC(=O)O)c2nc(CNc3ccccc3)cs2)cc1 [Compound 26],16

# Same assay, conditions: vs parent compound 3
row,Compound,Fold weakening of PL^pro interaction compared to compound 3 [fold]
1,Cc1csc(N(CCC(=O)O)c2cccc3ccccc23)n1 [Compound 4],8

# Same assay, conditions: vs starting compound 1
row,Compound,Fold increase in PL^pro binding affinity compared to compound 1 [fold]
1,NC(=S)N(CCC(=O)O)c1cccc2ccccc12 [Compound 2],2

# Molecular target: SARS-CoV-2 M^pro (Severe acute respiratory syndrome coronavirus 2, UniProt P0DTD1)
# Assay: biochemical
# Format: biochemical
# Conditions: not given
row,Compound,Kd [µM]
1,"O=C(O)CCNc1cccc2ccccc12 [Compound 1, 3-(naphtylamino]propanoic acid]",> 200
2,NC(=S)N(CCC(=O)O)c1cccc2ccccc12 [Compound 2],> 200
3,"O=C(O)CCN(c1nccs1)c1cccc2ccccc12 [Compound 3, 3-[naphthalene-1-yl(1,3-thiazol-2-yl)amino]propanoic acid]",25
4,Cc1csc(N(CCC(=O)O)c2cccc3ccccc23)n1 [Compound 4],> 200
5,O=C(O)CCN(C1=NC(=O)CS1)c1cccc2ccccc12 [Compound 5],> 200
6,O=C(O)CCN(c1nc(-c2ccc(Br)cc2)cs1)c1cccc2ccccc12 [Compound 6a],> 200
7,O=C(O)CCN(c1nc(-c2ccc(Cl)cc2)cs1)c1cccc2ccccc12 [Compound 6b],> 200
8,O=C(O)CCN(c1nc(-c2ccc(F)cc2)cs1)c1cccc2ccccc12 [Compound 6c],> 200
9,O=C(O)CCN(c1nc(-c2ccc([N+](=O)[O-])cc2)cs1)c1cccc2ccccc12 [Compound 6d],26
10,N#Cc1ccc(-c2csc(N(CCC(=O)O)c3cccc4ccccc34)n2)cc1 [Compound 6e],> 200
11,O=C(O)CCN(c1nc(-c2ccc(Cl)c(Cl)c2)cs1)c1cccc2ccccc12 [Compound 7],> 200
12,O=C(O)CCN(c1nc(-c2ccc3ccccc3c2)cs1)c1cccc2ccccc12 [Compound 8],> 200
13,O=C(O)CCN(c1nc(CCl)cs1)c1cccc2ccccc12 [Compound 9],> 200
14,O=C(O)CCN(c1nc(CO)cs1)c1cccc2ccccc12 [Compound 10],> 200
15,CCOC(=O)Cc1csc(N(CCC(=O)O)c2cccc3ccccc23)n1 [Compound 11],> 200
16,O=C(O)CCN(c1nc(CNc2ccccc2)cs1)c1cccc2ccccc12 [Compound 12],> 200
17,O=C(O)CCN(C1=NC(=O)C(=Cc2ccc(Br)cc2)S1)c1cccc2ccccc12 [Compound 13a],6.5
18,O=C(O)CCN(C1=NC(=O)C(=Cc2ccc(Cl)cc2)S1)c1cccc2ccccc12 [Compound 13b],> 200
19,O=C(O)CCN(C1=NC(=O)/C(=C/c2ccc(F)cc2)S1)c1cccc2ccccc12 [Compound 13c],8.6
20,O=C(O)CCN(C1=NC(=O)C(=Cc2ccc(O)cc2O)S1)c1cccc2ccccc12 [Compound 14],> 200
21,O=C(O)CCN(C1=NC(=O)C(=Cc2ccccc2O)S1)c1cccc2ccccc12 [Compound 15],> 200
22,O=C(O)CCN(C1=NC(=O)C(=Cc2cccs2)S1)c1cccc2ccccc12 [Compound 16],> 200
23,COC(=O)C=C1SC(N(CCC(=O)O)c2cccc3ccccc23)=NC1=O [Compound 17],> 200
24,Cc1nc(N(CCC(=O)O)c2cccc3ccccc23)sc1C(=O)O [Compound 18],> 200
25,Cc1nc(N(CCC(=O)O)c2cccc3ccccc23)sc1C(=O)/C=C/c1ccc(Cl)cc1 [Compound 21b],17
26,Cc1nc(N(CCC(=O)O)c2cccc3ccccc23)sc1C(=O)/C=C/c1ccc(F)cc1 [Compound 21c],> 200
27,Cc1ccc(N(CCC(=O)O)c2nc(CNc3ccccc3)cs2)cc1 [Compound 26],> 200

# Same assay, conditions: ratio of Kd values
row,Compound,Fold more potent for M^pro inhibition than PL^pro [fold]
1,O=C(O)CCN(C1=NC(=O)C(=Cc2ccc(Br)cc2)S1)c1cccc2ccccc12 [Compound 13a],3.7

# Test system: not given
# Assay: not given
# Conditions: not given
row,Compound,melting point [°C]
1,O=C(O)CCN(C1=NC(=O)C(=Cc2ccc(O)cc2O)S1)c1cccc2ccccc12 [Compound 14],205 to 206
2,O=C(O)CCN(C1=NC(=O)C(=Cc2ccccc2O)S1)c1cccc2ccccc12 [Compound 15],203 to 204

# Source: PMC10488051, “Screening, Synthesis and Biochemical Characterization of SARS-CoV-2 Protease Inhibitors” (International Journal of Molecular Sciences, 2023)
